Where a name gives a salt, the structure may show the parent alone.
Biological target: abnormal prion protein (Mus musculus, UniProt P04925)
Assay: cell-based

Chain of abnormal prion protein (P04925 23-230 limits assumed): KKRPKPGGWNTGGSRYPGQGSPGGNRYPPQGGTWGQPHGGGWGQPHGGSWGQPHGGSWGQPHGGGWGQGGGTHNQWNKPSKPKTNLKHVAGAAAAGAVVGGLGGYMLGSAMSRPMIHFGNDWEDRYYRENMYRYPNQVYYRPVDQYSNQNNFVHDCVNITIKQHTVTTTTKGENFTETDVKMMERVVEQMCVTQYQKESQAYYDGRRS

O=C(CN1CCCC1)Nc1ccc(C(c2ccc(NC(=O)CN3CCCC3)cc2)C2CCCCC2)cc1 [maleic acid salt, N,N′-[(cyclohexylmethylene)di-4,1-phenylene]bis[2-(1-pyrrolidinyl)acetamide] maleate]
IC50: 460 ± 200 nM
